Assay results published in patent US10633416B2 (BGI SHENZHEN CO., LIMITED, priority 2014, dated 2020).

Tested on: potassium ion channel current of the DRG neurons
Assay type: cell-based, SD rats
Conditions: 5 mM

SMILES: Nc1ccncc1 [4AP, 4-aminopyridine]
- Current inhibition rate: 0.338
- Current recorded after loading: 0.9766 nA
